Source: patent publication US9120784B2, “1,3,4-oxadiazoles-2-thio azetidine derivatives as sphingosine-1 phosphate receptors modulators” (Allergan, Inc., priority 2012, dated 2015)

Biological target: T1, human S1P1 receptor (Homo sapiens, UniProt P21453)
T1 construct: expressed in transfected cells; membranes used
Assay: GTP γ35S binding assay for S1P1 activity
Type: biochemical
Conditions: membranes of cells stably expressing the S1P1 receptor, test compound 0.08 to 5,000 nM, read-out: S1P1 EC50 (nM) % inhibition
Experimental: Compounds were synthesized and tested for S1P1 activity using the GTP γ^35S binding assay. These compounds may be assessed for their ability to activate or block activation of the human S1P1 receptor in cells stably expressing the S1P1 receptor.
GTP γ^35S binding was measured in the medium containing (mM) HEPES 25, pH 7.4, MgCl2 10, NaCl 100, dithiothreitol 0.5, digitonin 0.003%, 0.2 nM GTP γ^35S, and 5 μg membrane protein in a volume of 150 μl. Test compounds were included in the concentration range from 0.08 to 5,000 nM unless indicated otherwise. Membranes were incubated with 100 μM 5′-adenylylimidodiphosphate for 30 min, and subsequently with 10 μM GDP for 10 min on ice. Drug, solutions and membrane were mixed, and then reactions were initiated by adding GTP γ^35S and continued for 30 min at 25° C. Reaction mixtures were filtered over Whatman CF/B filters under vacuum, and washed three times with 3 mL of ice-cold buffer (HEPES 25, pH7.4, MgCl2 10 and NaCl 100). Filters were dried and mixed with scintillant, and counted for ^35S activity using […]. Agonist-induced GTP γ^35S binding was obtained by subtracting that in the absence of agonist. Binding data were analyzed using a non-linear regression method. In case of antagonist assay, the reaction mixture contained 10 nM […] in the presence of test antagonist at concentrations ranging from 0.08 to 5000 nM.

T1 sequence (P21453 whole entry): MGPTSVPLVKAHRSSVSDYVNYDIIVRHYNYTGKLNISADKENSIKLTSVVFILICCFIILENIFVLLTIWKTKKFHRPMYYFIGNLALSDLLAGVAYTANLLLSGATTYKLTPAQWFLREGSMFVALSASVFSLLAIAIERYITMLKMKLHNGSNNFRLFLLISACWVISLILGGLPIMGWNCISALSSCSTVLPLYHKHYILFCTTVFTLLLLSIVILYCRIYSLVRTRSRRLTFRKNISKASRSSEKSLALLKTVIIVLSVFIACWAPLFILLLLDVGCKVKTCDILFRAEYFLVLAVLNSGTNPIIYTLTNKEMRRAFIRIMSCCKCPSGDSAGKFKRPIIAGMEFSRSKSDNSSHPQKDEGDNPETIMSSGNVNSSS

- EC50: 22.9 nM
SMILES: Cc1ccc(-c2nnc(SC(C)c3ccc(CN4CC(C(=O)O)C4)cc3)o2)cc1C (stereo not shown) [Compound 1, 1-[4-(1-{[5-(3,4-Dimethylphenyl)-1,3,4-oxadiazol-2-yl]thio}ethyl)benzyl]azetidine-3-carboxylic acid]
